From EP0657176B1, “Composition containing a water-insoluble or slightly water-soluble compound with enhanced water-solubility” (priority 1993, dated 1995)

How the values were obtained:
[1] = Water-solubility of flufenamic acid alone or combined with β-CyD-G2-COONa or β-CyD (Example 7); assay type: physicochemical; conditions: flufenamic acid about 6 mg; as Example 6 (cyclodextrin 75 mg in water 5 ml, 25°C, 8 hours)
Procedure: (§4) Sodium6-O-cyclomaltoheptaosyl-(6→1)-O-α-D-glucosyl-(4→1)-O-α-D-glucuronate (β-CyD-G2-COONa)(75 mg) was dissolved in water (5 ml).

[2] = Water-solubility of the antifungal agent alone or combined with β-CyD-G2-COONa or β-CyD (Example 4); assay type: physicochemical; conditions: triazolone antifungal agent in water; with β-CyD-G2-COONa or β-CyD 1:2 (molar ratio), lyophilized powder; as Example 1; read-out: solubilities of the antifungal agent
Procedure: (§1) The antineoplastic agent 6-O-(N-chloroacetylcarbamoyl)fumagillol (100 mg) was dissolved in ethanol (4 ml). […] The aqueous solution was added to the ethanol solution and mixed with it with stirring. The resulting solution was lyophilized in vacuo to give powder. Water (1 ml) was added to the powder (100 mg) to obtain a homogeneous aqueous solution, i.e., a composition of the present invention.
(§2) On the other hand, the antineoplastic agent alone was added to water, and the mixture was vigorously shaken at 25 °C for 4 hours and filtered through a membrane filter of 0.22 µm.
(§3) The antineoplastic agent in the above homogeneous aqueous solution and filtrate was determined by high performance liquid chromatography (HPLC). As a result, the solubilities in Table 1 were obtained.
Likewise, lyophilized powder was obtained from the antifungal agent and β-cyclodextrin (β-CyD)(the antifungal agent : β-CyD = 1:2 (molar ratio)). […]

[3] = water, 8 h
Text: The results are in Table 10. Table 10

[4] = Water-solubility of griseofulvin alone or combined with β-CyD-G2-COONa or β-CyD (Example 12, milling, spectrophotometry); assay type: physicochemical; conditions: with β-CyD-G2-COONa or β-CyD 1:1 (molar ratio), shaken in tumbler pulverizer with a small amount of water, lyophilized, powder 100 mg + water 1 ml, alone: 25°C, 6 hours, read-out: solubilities of griseofulvin
Procedure: Water (1 ml) was added to each powder (100 mg) thus obtained to obtain an aqueous solution thereof. On the other hand, griseofulvin alone was added to water, and the mixture was vigorously shaken at 25°C for 6 hours and filtered through a membrane filter of 0.22 µm.
The griseofulvin in the above filtrate was determined by spectrophotometry (Shimadzu Corp., UV-240 spectrophotometer).

[5] = Water-solubility of clofibrate alone or combined with β-CyD-G2-COONa or β-CyD (Example 5); assay type: physicochemical; conditions: in water; with β-CyD-G2-COONa or β-CyD 1:2 (molar ratio), lyophilized powder; as Example 1; read-out: solubilities of clofibrate
Procedure: as §1, §2, §3
Likewise, lyophilized powder was obtained from clofibrate and β-cyclodextrin (β-CyD) (clofibrate : β-CyD = 1:2 (molar ratio)). […]

[6] = Water-solubility of testosterone alone or combined with β-CyD-CH2CH(OH)-COONa or β-CyD (Example 15); assay type: physicochemical; conditions: testosterone about 4 mg, β-CyD-CH2CH(OH)-COONa or β-CyD 75 mg in water 5 ml, shaken at 25°C for 8 hours; ultraviolet spectrophotometer; read-out: solubilities of testosterone
Procedure: The same operations were carried out using β-CyD instead of β-CyD-CH2CH(OH)-COONa or using testosterone alone. The concentration of testosterone dissolved in the resulting filtrate was determined with an ultraviolet spectrophotometer (Shimadzu Corp., UV-240).

[7] = Water-solubility of testosterone alone or combined with α-CyD-G2-COONa or α-CyD (Example 14); assay type: physicochemical; conditions: testosterone about 4 mg, α-CyD-G2-COONa or α-CyD 75 mg in water 5 ml, shaken at 25°C for 8 hours; ultraviolet spectrophotometer; read-out: solubilities of testosterone
Procedure: The same operations were carried out using α-cyclodextrin (α-CyD) instead of α-CyD-G2-COONa or using testosterone alone. The concentration of testosterone dissolved in the resulting filtrate was determined with an ultraviolet spectrophotometer (Shimadzu Corp., UV-240).

[8] = Water-solubility of testosterone alone or combined with β-CyD-G2-COONa or β-CyD (Example 8)
Procedure: as §4

[9] = Water-solubility of phenytoin alone or combined with β-CyD-G2-COONa or β-CyD (Example 9)
Procedure: as §4

[10] = Water-solubility of indomethacin alone or combined with β-CyD-G2-COONa or β-CyD (Example 11)
Text: The results are in Table 11. Table 11

[11] = Water-solubility of acetohexamide alone or combined with β-CyD-G2-COONa or β-CyD (Example 13); assay type: physicochemical; conditions: with β-CyD-G2-COONa or β-CyD 1:1 (molar ratio), as Example 12, powder 100 mg + water 1 ml; alone: 25 °C, 6 hours; ultraviolet spectrophotometer; read-out: solubilities of acetohexamide
Procedure: Separately, powder was obtained by the same operation except using β-CyD instead of the above β-CyD-G2-COONa. Water (1 ml) was added to each powder (100 mg) thus obtained to dissolve it. On the other hand, acetohexamide alone was added to water, and the mixture was vigorously shaken at 25 °C for 6 hours and filtered through a membrane filter of 0.22 µm. The acetohexamide in the above filtrate was determined with an ultraviolet spectrophotometer (Shimadzu Corp., UV-240).

With `O=C(O)c1ccccc1Nc1cccc(C(F)(F)F)c1` [Flufenamic acid alone, flufenamic acid] the “solubilities of flufenamic acid” value [1] was 0.074 mg/mL.

In the case of `C[C@@H](n1ncn(-c2ccc(OCC(F)(F)C(F)F)cc2)c1=O)[C@](O)(Cn1cncn1)c1ccc(F)cc1F` [Antifungal agent alone, 2-[(1R,2R)-2-(2,4-difluorophenyl)-2-hydroxy-1-methyl-3-(1H-1,2,4-triazol-1-yl)propyl]-4-[4-(2,2,3,3-tetrafluoropropoxy)phenyl]-3-(2H,4H)-1,2,4-triazolone], the solubility [2] is reported as 5 µg/mL.

For vitamin K2 [Vitamin K2 alone], the “solubilities of vitamin K2” value [3] was 0.0005 µg/mL.

In the case of `COC1=CC(=O)C[C@@H](C)[C@]12Oc1c(Cl)c(OC)cc(OC)c1C2=O` [Griseofulvin alone, griseofulvin], the solubility [4] is reported as 23 µg/mL.

Work on `CCOC(=O)C(C)(C)Oc1ccc(Cl)cc1` [Clofibrate agent alone, clofibrate] yielded a solubility [5] of 82 µg/mL.

With `C[C@]12CC[C@H]3[C@@H](CCC4=CC(=O)CC[C@@]43C)[C@@H]1CC[C@@H]2O` [Testosterone alone, testosterone] the solubility at 8 h [6] was 29 µg/mL, the solubility at 8 h [7] was 29 µg/mL and the solubility at 8 h [8] was 29 µg/mL.

`O=C1NC(=O)C(c2ccccc2)(c2ccccc2)N1` [Phenytoin alone, phenytoin] showed a solubility at 8 h [9] of 27 µg/mL.

`COc1ccc2c(c1)c(CC(=O)O)c(C)n2C(=O)c1ccc(Cl)cc1` [Indomethacin alone, indomethacin] showed a solubility at 8 h [10] of 23 µg/mL.

In the case of `CC(=O)c1ccc(S(=O)(=O)NC(=O)NC2CCCCC2)cc1` [Acetohexamide alone, acetohexamide], the solubility [11] is reported as 28.1 µg/mL.
